From US8299129B2, “Peptide lipid-containing carrier and method for introducing compound into cells using same” (Fukuoka Prefectural Government, priority 2006, dated 2012)

How the values were obtained:
[1] = test system: Balb/c mouse; assay: Introduction of Cy3-labeled siRNA into mouse tissues using peptide lipid, fluorescence microscopy of removed tissues; type: in vivo; settings: tail vein injection, Cy3-labeled siRNA complex, 4 hours
Protocol: (§1) Cy3-labeled siRNA ([…], purchased from Dharmacon) was mixed with 200 μl of 150 mM NaCl solution, 1.3 mM peptide lipid (RE-C12) (16 μl) was mixed with the above-mentioned siRNA solution and the mixture was incubated for 5 min to give peptide lipid—RNA complex. This was injected to Balb/c mouse (15-week-old) from the tail vein. […] Four hours later, the mouse was autopsied and each tissue (heart, lung, liver, kidney, spleen) was removed, which was cut into small pieces and observed with a fluorescence microscope. When peptide lipid was used as a carrier, siRNA could be introduced into each tissue in the body.

[2] = test system: Balb/c mouse; assay: Acute toxicity in mouse after tail vein injection of peptide lipid-RNA complex; type: in vivo; settings: at the concentration tested
Protocol: as §1

Arg-Glu-C12 [RE-C12]
Introduction efficiency into the liver and spleen [1]: particularly superior
evaluation (introduction of siRNA), heart ([1]; heart): 5%
evaluation (introduction of siRNA), kidney ([1]; kidney): 5%
evaluation (introduction of siRNA), liver ([1]; liver): 25%
evaluation (introduction of siRNA), lung ([1]; lung): 10%
evaluation (introduction of siRNA), spleen ([1]; spleen): 30%
acute toxicity [2]: acute toxicity was not observed
